pIC50: −log10 of the molar value. “And” between values parts separate entries of the source, which are not always exact repeats. Equal values may be shown once.
Experiments:
Details in all cases: average where tested multiple times
BCAT2 [1] = biological target: T1, BCAT2 (Homo sapiens, UniProt O15382); test: BCAT2 in vitro cell inhibition using engineered A549 cells (KMV cell assay, 13C6-KMV by LC-MS/MS); format: cell-based; design: The result was an engineered A549 cell line that expressed endogenous BCAT2; endogenous in cells; host or cells: A549 cells with MUT and BCAT1 knocked out by CRISPR/CAS9
T1 sequence (O15382 28-392): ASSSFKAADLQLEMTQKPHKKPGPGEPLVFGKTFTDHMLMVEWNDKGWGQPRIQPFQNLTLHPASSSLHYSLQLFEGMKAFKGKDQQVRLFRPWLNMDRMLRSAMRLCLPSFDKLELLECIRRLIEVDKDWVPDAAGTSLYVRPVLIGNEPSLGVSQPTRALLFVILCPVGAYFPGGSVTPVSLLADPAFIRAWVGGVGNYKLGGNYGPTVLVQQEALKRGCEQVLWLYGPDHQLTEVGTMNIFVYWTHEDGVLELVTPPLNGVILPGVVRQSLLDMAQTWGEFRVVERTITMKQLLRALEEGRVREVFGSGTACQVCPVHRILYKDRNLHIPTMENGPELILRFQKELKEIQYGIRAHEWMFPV

hBCAT1 = biological target: T2, hBCAT1 (Homo sapiens, UniProt P54687); test: BCAT1 in vitro enzyme inhibition assay (resazurin/diaphorase-coupled fluorescence); format: biochemical
T2 sequence (P54687 1-386): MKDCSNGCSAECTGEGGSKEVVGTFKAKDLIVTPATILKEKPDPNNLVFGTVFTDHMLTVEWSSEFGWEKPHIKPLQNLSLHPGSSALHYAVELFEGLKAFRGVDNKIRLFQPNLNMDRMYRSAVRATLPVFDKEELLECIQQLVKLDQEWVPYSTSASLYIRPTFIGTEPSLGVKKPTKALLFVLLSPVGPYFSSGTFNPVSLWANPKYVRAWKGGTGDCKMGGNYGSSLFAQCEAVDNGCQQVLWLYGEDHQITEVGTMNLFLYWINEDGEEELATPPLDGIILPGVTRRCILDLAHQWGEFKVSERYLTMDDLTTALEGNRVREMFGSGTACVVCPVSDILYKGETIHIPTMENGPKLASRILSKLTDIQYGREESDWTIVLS
How it was run: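 Human BCAT1 activity read by resazurin/diaphorase-coupled fluorescence. Compounds added from 50× DMSO stocks at 1:50, giving 10-point 3-fold titrations from 100 μM top final concentration. Run in technical duplicate; repeat tests averaged.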

BCAT2 [2] = biological target: T1, BCAT2; test: BCAT2 in vitro enzyme inhibition assay (resazurin/diaphorase-coupled fluorescence); format: biochemical
How it was run: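 Coupled fluorescence readout: glutamate formed from L-leucine/α-ketoglutarate transamination drives GDH/NAD/diaphorase reduction of resazurin (Ex 540/Em 590). Human BCAT2 was first exposed 1 h at room temperature to compound, top final 100 μM in 3-fold, 10-point series; substrate reaction ran 1 h before SDS quench, in technical duplicate with DMSO max and enzyme-free min controls.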

SMILES	pIC50 (BCAT2 [1])	pIC50 (hBCAT1)	pIC50 (BCAT2 [2])
O=C(N[C@H]1CCC[C@@H](n2c(-c3ncccc3F)nc3cnc(-n4cncn4)cc32)C1)c1ncc(C(F)F)s1 [Example 28, 5-(difluoromethyl)-N-((1S,3R)-3-(2-(3-fluoropyridin-2-yl)-6-(1H-1,2,4-triazol-1-yl)-1H-imidazo[4,5-c]pyridin-1-yl)cyclohexyl)thiazole-2-carboxamide]	6.00 to 6.30	5.30 to 6.00	≥ 7.00
CN1C[C@H](NC(=O)c2ncc(Cl)s2)C[C@H](n2c(-c3ccccc3F)nc3cnc(-c4nc[nH]n4)cc32)C1 (single isomer, unassigned) [Example 134]	≥ 7.00	> 6.30	≥ 7.00
O=C(N[C@H]1CCC[C@@H](n2c(-c3ccccc3F)nc3cnc(-c4ncco4)cc32)C1)c1ccc(Br)s1 [Example 7, 5-bromo-N-((1S,3R)-3-(2-(2-fluorophenyl)-6-(oxazol-2-yl)-1H-imidazo[4,5-c]pyridin-1-yl)cyclohexyl)thiophene-2-carboxamide]	≥ 7.00	> 6.30	≥ 7.00
CC(=O)N1CC(NC(=O)c2ccc(Cl)s2)CC(n2c(-c3ccccc3F)nc3cnc(-n4nccn4)cc32)C1 (stereo not drawn) [Example 132, N-(1-acetyl-5-(2-(2-fluorophenyl)-6-(2H-1,2,3-triazol-2-yl)-1H-imidazo[4,5-c]pyridin-1-yl)piperidin-3-yl)-5-chlorothiophene-2-carboxamide]	≥ 7.00	> 6.30	≥ 7.00
O=C(N[C@H]1CCC[C@@H](n2c(-c3ncccc3F)nc3cnc(-n4ccnn4)cc32)C1)c1ncc(Br)s1 [Example 35, 5-bromo-N-((1S,3R)-3-(2-(3-fluoropyridin-2-yl)-6-(1H-1,2,3-triazol-1-yl)-1H-imidazo[4,5-c]pyridin-1-yl)cyclohexyl)thiazole-2-carboxamide]	6.00 to 6.30	5.30 to 6.00	≥ 7.00
O=C(NC1CC(O)CC(n2c(-c3ccccc3F)nc3cnc(-n4nccn4)cc32)C1)c1ncc(Cl)s1 (stereo not drawn) [Example 109, 5-chloro-N-(3-(2-(2-fluorophenyl)-6-(2H-1,2,3-triazol-2-yl)-1H-imidazo[4,5-c]pyridin-1-yl)-5-hydroxycyclohexyl)thiazole-2-carboxamide]	≥ 7.00	> 6.30	≥ 7.00
Cn1nccc1-c1nc2cnc(-n3nccn3)cc2n1[C@@H]1CCC[C@H](NC(=O)c2ncc(C(F)F)s2)C1 [Example 43, 5-(difluoromethyl)-N-((1S,3R)-3-(2-(1-methyl-1H-pyrazol-5-yl)-6-(2H-1,2,3-triazol-2-yl)-1H-imidazo[4,5-c]pyridin-1-yl)cyclohexyl)thiazole-2-carboxamide]	6.00 to 6.30 and 6.30 to 7.00	< 5.30	≥ 7.00
O=C(N[C@H]1CCC[C@@H](n2c(-c3ncccc3F)nc3cnc(-n4ccnn4)cc32)C1)c1ncc(C(F)F)s1 [Example 37, 5-(difluoromethyl)-N-((1S,3R)-3-(2-(3-fluoropyridin-2-yl)-6-(1H-1,2,3-triazol-1-yl)-1H-imidazo[4,5-c]pyridin-1-yl)cyclohexyl)thiazole-2-carboxamide]	< 6.00	5.30 to 6.00	6.30 to 7.00
O=C(N[C@H]1CCC[C@@H](n2c(-c3ccccn3)nc3cnc(-c4nc[nH]n4)cc32)C1)c1ncc(C(F)F)s1 [Example 53, 5-(difluoromethyl)-N-((1S,3R)-3-(2-(pyridin-2-yl)-6-(1H-1,2,4-triazol-3-yl)-1H-imidazo[4,5-c]pyridin-1-yl)cyclohexyl)thiazole-2-carboxamide]	≥ 7.00	> 6.30	≥ 7.00
O=C(N[C@H]1CCC[C@@H](n2c(-c3ccccc3F)nc3cnc(-n4nccn4)cc32)C1)c1ccc(Cl)s1 [Example 72, 5-chloro-N-((1S,3R)-3-(2-(2-fluorophenyl)-6-(2H-1,2,3-triazol-2-yl)-1H-imidazo[4,5-c]pyridin-1-yl)cyclohexyl)thiophene-2-carboxamide]	≥ 7.00	> 6.30	≥ 7.00

Now from value to molecule:

pIC50 (BCAT2 [1])	pIC50 (hBCAT1)	pIC50 (BCAT2 [2])	SMILES
6.00 to 6.30	> 6.30	≥ 7.00	CC(C)Cc1nc2cnc(-n3ccc(N)n3)cc2n1[C@@H]1CCC[C@H](NC(=O)c2ncc(Cl)s2)C1 [Example 334, N-((1S,3R)-3-(6-(3-amino-1H-pyrazol-1-yl)-2-isobutyl-1H-imidazo[4,5-c]pyridin-1-yl)cyclohexyl)-5-chlorothiazole-2-carboxamide]
≥ 7.00	> 6.30	≥ 7.00	O=C(NC1CCCCC(n2c(-c3ccccc3F)nc3cnc(-c4nc[nH]n4)cc32)C1O)c1ncc(Cl)s1 (stereo not drawn) [Example 402, 5-chloro-N-((2-(2-fluorophenyl)-6-(1H-1,2,4-triazol-3-yl)-1H-imidazo[4,5-c]pyridin-1-yl)-2-hydroxycycloheptyl)thiazole-2-carboxamide]
≥ 7.00	> 6.30	≥ 7.00	Cc1cnn(-c2cc3c(cn2)nc(-c2ccccc2F)n3[C@@H]2CCC[C@H](NC(=O)c3ncc(Cl)s3)[C@H]2O)n1 [Example 246, 5-chloro-N-((1S,2R,3R)-3-(2-(2-fluorophenyl)-6-(4-methyl-2H-1,2,3-triazol-2-yl)-1H-imidazo[4,5-c]pyridin-1-yl)-2-hydroxycyclohexyl)thiazole-2-carboxamide]
< 6.00	5.30 to 6.00	6.30 to 7.00	O=C(N[C@H]1CCC[C@@H](n2c(C3COCCO3)nc3cnc(-c4nc[nH]n4)cc32)C1)c1ncc(Cl)s1 (single isomer, unassigned) [Example 176]
6.00 to 6.30	> 6.30	≥ 7.00	CC(C)Cc1nc2cnc(-n3ncc(CO)n3)cc2n1[C@@H]1CCC[C@H](NC(=O)c2ncc(Cl)s2)C1 [Example 337, 5-chloro-N-((1S,3R)-3-(6-(4-(hydroxymethyl)-2H-1,2,3-triazol-2-yl)-2-isobutyl-1H-imidazo[4,5-c]pyridin-1-yl)cyclohexyl)thiazole-2-carboxamide]
6.30 to 7.00	> 6.30	≥ 7.00	N#CC1CC(NC(=O)c2ncc(Cl)s2)CC(n2c(-c3ccccc3F)nc3cnc(-c4nc[nH]n4)cc32)C1 (single isomer, unassigned) [Example 451, 5-chloro-N-(3-cyano-5-(2-(2-fluorophenyl)-6-(1H-1,2,4-triazol-3-yl)-1H-imidazo[4,5-c]pyridin-1-yl)cyclohexyl)thiazole-2-carboxamide]
≥ 7.00	> 6.30	≥ 7.00	CNC(=O)c1cc2nc(-c3ccccc3F)n(C3CCCC(NC(=O)c4ncc(Cl)s4)C3O)c2cn1 (stereo not drawn) [Example 281, 5-chloro-N-(3-(2-(2-fluorophenyl)-6-(methylcarbamoyl)-3H-imidazo[4,5-c]pyridin-3-yl)-2-hydroxycyclohexyl)thiazole-2-carboxamide]
6.00 to 6.30	5.30 to 6.00	6.30 to 7.00	COc1ccc(-c2nc3cnc(-c4nc[nH]n4)cc3n2[C@@H]2CCC[C@H](NC(=O)c3ccc(Cl)s3)C2)c(F)c1 [Example 351, 5-chloro-N-((1S,3R)-3-(2-(2-fluoro-4-methoxyphenyl)-6-(1H-1,2,4-triazol-3-yl)-1H-imidazo[4,5-c]pyridin-1-yl)cyclohexyl)thiophene-2-carboxamide]
< 6.00	< 5.30	6.30 to 7.00	CC(C)Cc1nc2cnc(-n3cc(CO)nn3)cc2n1[C@@H]1CCC[C@H](NC(=O)c2ncc(Cl)s2)C1 [Example 346, 5-chloro-N-((1S,3R)-3-(6-(4-(hydroxymethyl)-1H-1,2,3-triazol-1-yl)-2-isobutyl-1H-imidazo[4,5-c]pyridin-1-yl)cyclohexyl)thiazole-2-carboxamide]
6.30 to 7.00	5.30 to 6.00	≥ 7.00	O=C(N[C@H]1CCC[C@@H](n2c(-c3ccccc3F)nc3cc(-n4ccnn4)ncc32)C1)c1ncc(C(F)F)s1 [Example 149, 5-(difluoromethyl)-N-((1S,3R)-3-(2-(2-fluorophenyl)-6-(1H-1,2,3-triazol-1-yl)-3H-imidazo[4,5-c]pyridin-3-yl)cyclohexyl)thiazole-2-carboxamide]
